Results as given in patent US20230082430A1 (C4 Therapeutics, Inc., priority 2019, published 2023).

tested on: NCIH929.1 cells; experiment: Cell viability assay for Table 2 (CellTiter-Glo 2.0, ATP quantification, 96 hr); assay type: cell-based; settings: 96 h, NCIH929.1 cell viability, 96 hr, top concentration 1 μM, 14 points half log titration; read-out: IC50
Text: Cell Viability Assay for Table 2
CellTiter-Glo® 2.0 Assay was purchased from Promega (Madison, Wis., USA). NCIH929.1 cell line was purchased from ATCC (Manassas, Va., USA). Cell culture flasks and 384-well microplates were acquired from VWR (Radnor, Pa., USA).

`COC1(CN2CCC(n3cc(Cc4ccc5c6c(cccc46)C(=O)N5C4CCC(=O)NC4=O)cn3)CC2)CCC1` (centres unmarked) [Compound 56, 3-(6-((1-(1-((1-methoxycyclobutyl)methyl)piperidin-4-yl)-1H-pyrazol-4-yl)methyl)-2-oxobenzo[cd]indol-1(2H)-yl)piperidine-2,6-dione] and `O=C1CCC(N2C(=O)c3cccc4c(Cc5cnn(C6CCN(CC7(F)CCC7)CC6)c5)ccc2c34)C(=O)N1` (centres unmarked) [Compound 59, 3-(6-((1-(1-((1-fluorocyclobutyl)methyl)piperidin-4-yl)-1H-pyrazol-4-yl)methyl)-2-oxobenzo[cd]indol-1(2H)-yl)piperidine-2,6-dione] cannot be ordered by IC50: < 1 nM for the first, < 1 nM for the second.

`CC1(C(=O)N2CCC(C)(n3cc(Cc4ccc5c6c(cccc46)C(=O)N5C4CCC(=O)NC4=O)cn3)CC2)CC1` (centres unmarked) [Compound 83, 3-(6-((1-(4-methyl-1-(1-methylcyclopropane-1-carbonyl)piperidin-4-yl)-1H-pyrazol-4-yl)methyl)-2-oxobenzo[cd]indol-1(2H)-yl)piperidine-2,6-dione] and `CC1(C(=O)N2CCC(C)(n3cc(Cc4ccc5c6c(cccc46)C(=O)N5C4CCC(=O)NC4=O)cn3)CC2)COC1` (centres unmarked) [Compound 94, 3-(6-((1-(4-methyl-1-(3-methyloxetane-3-carbonyl)piperidin-4-yl)-1H-pyrazol-4-yl)methyl)-2-oxobenzo[cd]indol-1(2H)-yl)piperidine-2,6-dione] cannot be ordered by IC50: < 1 nM for the first, < 1 nM for the second.

`N#CC1(C(=O)N2CCC(n3cc(Cc4ccc5c6c(cccc46)C(=O)N5C4CCC(=O)NC4=O)cn3)CC2)CCC1` (centres unmarked) [Compound 39, 1-(4-(4-((1-(2,6-dioxopiperidin-3-yl)-2-oxo-1,2-dihydrobenzo[cd]indol-6-yl)methyl)-1H-pyrazol-1-yl)piperidine-1-carbonyl)cyclobutane-1-carbonitrile] and `CC12CC(C(=O)N3CCC(n4cc(Cc5ccc6c7c(cccc57)C(=O)N6C5CCC(=O)NC5=O)cn4)CC3)(CCO1)C2` (centres unmarked) [Compound 49, 3-(6-((1-(1-(1-methyl-2-oxabicyclo[3.1.1]heptane-5-carbonyl)piperidin-4-yl)-1H-pyrazol-4-yl)methyl)-2-oxobenzo[cd]indol-1(2H)-yl)piperidine-2,6-dione] cannot be ordered by IC50: < 1 nM for the first, < 1 nM for the second.

Going from `O=C1CCC(N2C(=O)c3cccc4c(Cc5ccc(CN6CCOCC6=O)cc5)ccc2c34)C(=O)N1` (centres unmarked) [Compound 197, 3-[2-oxo-6-[[4-[(3-oxomorpholin-4-yl)methyl]phenyl]methyl]benzo[cd]indol-1-yl]piperidine-2,6-dione] to `COC(=O)c1ccc2c3c(cccc13)C(=O)N2C1CCC(=O)NC1=O` (centres unmarked) [Compound 124, methyl 1-(2,6-dioxo-3-piperidyl)-2-oxo-benzo[cd]indole-6-carboxylate], the IC50 rises from < 1 nM to > 999 nM.

`O=C1CCC(N2C(=O)c3cccc4c(Cc5cnn(C6CCN(C7(C8CC8)CC7)CC6)c5)ccc2c34)C(=O)N1` (centres unmarked) [Compound 223, 3-[6-[[1-[1-(1-cyclopropylcyclopropyl)-4-piperidyl]pyrazol-4-yl]methyl]-2-oxo-benzo[cd]indol-1-yl]piperidine-2,6-dione] and `CC1(n2cc(Cc3ccc4c5c(cccc35)C(=O)N4C3CCC(=O)NC3=O)cn2)CCN(C(=O)C23CCN(CC2)C3)CC1` (centres unmarked) [Compound 74, 3-(6-((1-(1-(1-azabicydo[2.2.1]heptane-4-carbonyl)-4-methylpiperidin-4-yl)-1H-pyrazol-4-yl)methyl)-2-oxobenzo[cd]indol-1(2H)-yl)piperidine-2,6-dione] cannot be ordered by IC50: < 1 nM for the first, < 100 nM for the second.

same assay, conditions: NCIH929.1 cell viability, 96 hr, top concentration 1 μM, 14 points half log titration; read-out: IC50

For `N#Cc1ccc(N2CCN(Cc3ccc(Cc4ccc5c6c(cccc46)C(=O)N5C4CCC(=O)NC4=O)cc3)CC2)c(F)c1` (single isomer, unassigned) [Compound 185, 4-(4-(4-((1-(2,6-dioxopiperidin-3-yl)-2-oxo-1,2-dihydrobenzo[cd]indol-6-yl)methyl)benzyl)piperazin-1-yl)-3-fluorobenzonitrile], the IC50 was < 1 nM.
